Test results taken from US12521409B2, “Cognition” (priority 2023, dated 2026).
“Also recorded” adds a separate entry of the source.

Columns and labels:
TG2576 mice [1] = test: Plasma glutamate and glutamine by LC-MS in TG2576 mice on TAG-supplemented diet (Example 1B); settings: mouse, in vivo
TG2576 mice [2] = test: UDP N-acetyl glucosamine in brain tissue of TG2576 mice on TAG-supplemented diet, LC-MS/MS (Example 2B); assay type: in vivo, mouse
Experimental: After 6 weeks brains were excised and bisected in the sagittal plane. The hemi-brains were stored frozen (−80° C.) then thawed, weighed and homogenized in 10 volumes of MeOH/MeCN/H2O (50%/30%/20%, v/v/v). Homogenates were centrifuged at 5000 rpm for 30 min. The supernatant was passed through 1 kDa MW centrifugal filters then evaporated and resuspended in the HPLC mobile phase. UDP N-acetyl glucosamine was run on a mixed-mode hydrophilic HPLC column (150 mm×4.6 mm id, Primesep N, by SIELC), with guard under a linear gradient of 80% acetonitrile and 10 mM ammonium formate pH 4.3 to 10% MeCN and 10 mM ammonium formate over 9 min, then return to starting conditions over 1 min. UDP N-acetyl glucosamine in brain extracts was quantified against commercial standard UDP N-acetyl glucosamine detected by mass spectrometry (MS-MS) in negative ion mode, scanning for m/z 606 and identification of major collision fragments m/z 385 and 403. UDP levels were corrected for brain mass. The effect of diet was calculated using 1-tailed t-test.

TG2576 mice [3] = test: Morris water maze, spatial memory in TG2576 mice (Example 3B); assay type: in vivo, mouse; settings: TAG diet
Text: The Morris water maze (MWM) has been used to measure spatial memory deficit in TG2576 mice. Mice are placed in a tub of water and containing a submerged platform. The amount of time required for a mouse to swim to the platform is referred to as the maze “escape time”. There are two testing stages in the water maze: 1. VISIBLE STAGE, in which the position of the platform is made visible by a marker pole attached to the platform, and 2. HIDDEN STAGE where the marker pole is removed and the water made opaque by the addition of white paint. Compared to wild type siblings, older TG2576 mice show increased latency to escape time.
The maze consisted of a 715 mm diameter tub filled to a depth of 70 mm. For VISIBLE STAGE testing, mice were placed in the water maze and the time they took to reach the platform was recorded with a stop watch. This testing was carried out 8 times per day for 3 days, during which the platform was moved to various positions around the maze. The walls of the maze were inscribed with 4 distinct shapes that were provided as spatial cues for learning. The HIDDEN STAGE testing was carried out for 7 days, 4 times per day. The position of the platform was fixed, but mice were placed in the maze at different positions for each test.
[…].
As subjects learned to navigate and find the hidden platform, their escape time was reduced. […]

tetra-acetyl glucosamine [TAG]
Plasma concentration of glutamate (TG2576 mice [1]): 1.05 ± 0.094 RU/ml | Plasma concentration of glutamine (TG2576 mice [1]): 6.77 ± 1.05 RU/ml | Plasma glutamate level compared to control mice (in words) (TG2576 mice [1]): significantly lower; also recorded: reduced | Plasma glutamine level compared to control mice (in words) (TG2576 mice [1]): trend of increased | UDP N-acetyl glucosamine in brain (TG2576 mice [2]; TG2576 mice, 0.45% (w/w) TAG diet for 6 weeks, n = 5, p=0.037 vs control diet): 28.3 ± 2.13 ng/mg brain fwt | Increase in levels of UDP N-acetyl glucosamine in brain vs control diet (TG2576 mice [2]; TG2576 mice, 6 weeks of TAG-supplemented diet): 40% | UDP N-acetyl glucosamine in brain tissue compared to control (in words) (TG2576 mice [2]; mice models of AD fed a diet supplemented with TAG): increased | Effect on latency to escape time / spatial working memory in Morris water maze (in words) (TG2576 mice [3]; after 7 days): decreased; also recorded: significantly improved | Mean escape time ± SE (TG2576 mice [3]; water maze after 7 days, n = 8, in s (unit assumed)): 9.31 ± 0.80
